Here are results for one compound from patent US12527782B2, “Use of hexokinase 2/mitochondria-detaching compounds for treating hexokinase-2 (HK2)-expressing cancers” (Vidac Pharma Ltd., priority 2016, dated 2026).

Series [1] relates to Leukemia (AML) LEXFAM KG-1a. The experiment in a line: CFA, LEXFAM KG-1a. Type of series: cell-based, human. The following applies: Cell line/CFA. How it is done: (§1) CFA was performed by Charles River Laboratories (Freiburg, Germany) in 96-well plate format according to a modified two-layer soft agar assay. The origin of the tumor xenografts has been described (Fiebig et al. 1989, incorporated herein by reference). The list of tumors used in this study is detailed in Table 1.

Series [2] is described as follows: Phase 2a in subjects with actinic keratosis, pharmacokinetics. The following applies: subjects with AK; topical application. Type of series: in vivo, human. The protocol:
The Phase 2 clinical trial was a multiple-center randomized, double-blind, placebo-controlled, parallel-cohorts study to evaluate the efficacy, safety, tolerability, and pharmacokinetics of once-daily application of topical Formula C ointment (QD 200 mg) for 28 days in subjects with actinic keratosis. Subjects were followed for one or two months after they completed treatment (through day 56 or day 84). The primary and exploratory efficacy endpoints for the study were reduction in the number of lesions on days 56 and 84, respectively. Subjects were randomly assigned in a double-blind fashion to one of three parallel treatment cohorts (5%, or 10% Formula C, or placebo) at a ratio of 1:1:1. To qualify for the study, subjects aged 18 (inclusive) or older must have had 4-8 discrete Grade 1 or 2 AK lesions within a 25-centimeter squared area of the skin of their scalp or face. The study enrolled 93 subjects in the US and Israel.

The target of series [3] is T1, HK2 (Homo sapiens, UniProt P52789).
T1 construct: host or cells: E. coli
T1 sequence (P52789 whole entry): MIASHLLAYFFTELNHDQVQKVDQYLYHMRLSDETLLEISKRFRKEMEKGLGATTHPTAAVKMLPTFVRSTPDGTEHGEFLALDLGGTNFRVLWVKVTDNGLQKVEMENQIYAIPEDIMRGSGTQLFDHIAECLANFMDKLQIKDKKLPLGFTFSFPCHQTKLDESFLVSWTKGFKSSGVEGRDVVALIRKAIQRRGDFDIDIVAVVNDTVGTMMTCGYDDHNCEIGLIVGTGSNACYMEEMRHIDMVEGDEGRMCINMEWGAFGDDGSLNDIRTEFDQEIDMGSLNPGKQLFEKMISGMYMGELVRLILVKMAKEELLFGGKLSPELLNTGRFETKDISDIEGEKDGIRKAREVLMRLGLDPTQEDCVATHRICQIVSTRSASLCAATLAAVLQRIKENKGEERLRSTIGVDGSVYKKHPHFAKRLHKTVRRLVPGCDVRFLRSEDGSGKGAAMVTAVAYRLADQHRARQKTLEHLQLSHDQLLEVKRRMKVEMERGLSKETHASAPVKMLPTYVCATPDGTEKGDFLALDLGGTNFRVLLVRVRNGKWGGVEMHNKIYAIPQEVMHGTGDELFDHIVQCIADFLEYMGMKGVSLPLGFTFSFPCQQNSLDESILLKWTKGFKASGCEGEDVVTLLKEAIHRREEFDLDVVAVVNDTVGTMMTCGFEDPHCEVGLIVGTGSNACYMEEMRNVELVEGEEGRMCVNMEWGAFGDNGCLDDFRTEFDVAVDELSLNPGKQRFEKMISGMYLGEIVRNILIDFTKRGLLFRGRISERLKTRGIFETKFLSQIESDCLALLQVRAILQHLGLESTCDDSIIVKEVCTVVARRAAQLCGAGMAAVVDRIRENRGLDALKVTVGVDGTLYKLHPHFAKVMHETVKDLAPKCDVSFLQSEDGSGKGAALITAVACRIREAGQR
The series can be described thus: HK catalytic activity coupled enzymatic assay, HK2. It counts as biochemical. The following applies: as a function of ATP or glucose; absence or presence of 10 M Formula C. The protocol: (§2) A431 (human skin SCC), HT-297.T (human AK), and HaCaT transformed normal keratinocyte cell lines were from ATCC (Manassas, VA) and were maintained in DMEM supplemented with 10% FCS, 4 mM L-Gln, 1 mM sodium pyruvate, 100 U/mL penicillin, 1 μg/mL streptomycin. Human HK1 and HK2 plasmids were purchased from Addgene (Cambridge, MA) and were purified from E. Coli. VDAC1 was purified from sheep liver mitochondria as described (Arbel et al. 2012, incorporated herein by reference). Human skin tissue microarray (SK208 and SK 805) were purchased from US Biomax Inc. (Rockville, MD).
Hexokinase catalytic activity was determined by the coupled enzymatic assay in which hexokinase catalyzes the conversion of glucose to G6P, which is then oxidized by glucose-6-phosphate dehydrogenase (G6PDH) in the presence of NADP to form 6-Phospho-D-Gluconate and NADPH. NADPH production results in a colorimetric signal at 340 nm, which is proportional to the hexokinase catalytic activity. The readings were recorded in an ELISA plate reader Infinite 200 ELISA reader (Tecan, Männedorf, Switzerland).

Series [4] deals with A431 Skin SCC cells. The experiment in a line: XTT cell viability assay, A431. Particulars: Cell line/XTT, 72 hr. Type of series: cell-based, human. How it is done: as §2
(§3) For XTT assays, cells were plated in 96-well plates (5,000 cells per well) for 24 hours. Cells were then incubated with different concentrations of Formula C in triplicates for 72 hr in DMEM supplemented with 0.5% FCS and 5 mM Glucose. Cell viability was evaluated using 2,3-bis-(2-methoxy-4-nitro-5-sulfophenyl)-2H-tetrazolium-5-carboxanilide (XTT)-based colorimetric assay kit (Biological Industries Ltd., Kibbutz Beit-Haemek, Israel). The optical density was measured by an Infinite 200 ELISA reader at 450 nm and reference was measured at 630 nm (Tecan, Männedorf, Switzerland).

Series [5] relates to Breast MAXF 1322. The series can be described thus: CFA, MAXF 1322. It counts as cell-based, human. The following applies: PDX/CFA. The protocol: as §1
Series [6] concerns Liver (HCC) LIXFH Hep G2. The experiment in a line: CFA, LIXFH Hep G2. Type of series: cell-based, human. Particulars: Cell line/CFA. How it is done: as §1
Series [7] concerns Leukemia (AML) LEXFAM KG-1. The series can be described thus: CFA, LEXFAM KG-1. Particulars: Cell line/CFA. It counts as cell-based, human. How it is done:
as §1

The test system of series [8] is Pancreas PAXF 736. The series can be described thus: CFA, PAXF 736. The following applies: PDX/CFA. Type of series: cell-based, human. The protocol:
as §1

The test system of series [9] is Head & Neck HNXF 908. The experiment in a line: CFA, HNXF 908. It counts as cell-based, human. Particulars: PDX/CFA. The protocol: as §1
The test system of series [10] is Cutanous T cell lymphoma MJ. The series can be described thus: XTT cell viability assay, MJ. Type of series: cell-based, human. Particulars: Cell line/XTT. How it is done:
as §3
(Formazan colour is commonly taken as a measure of viable cells.)

Series [11] relates to Pancreas PAXF Mia-Pa-Ca-2. The series can be described thus: CFA, PAXF Mia-Pa-Ca-2. It counts as cell-based, human. Particulars: Cell line/CFA. How it is done: as §1
Series [12] is described as follows: Skin irritation in naïve SKH-1 mice. The following applies: skin of naïve SKH-1 mice. It counts as in vivo, mouse.
A short description of series [13]: Phase 1a single topical application, safety and tolerability. It counts as in vivo, human. Particulars: healthy volunteers. How it is done:
The Phase 1a clinical trial was a randomized, double-blinded, placebo-controlled, dose-escalation study in healthy older-adult volunteers to evaluate the safety, tolerability, and pharmacokinetics of a single topical dermal application of Formula C ointment. The study was conducted under FDA IND in a Phase 1 unit in the United States.
Fifteen healthy volunteers, aged 35-70, were sequentially assigned to 1 of 3 consecutive treatment cohorts (5%, 10% or 20% Formula C ointment, respectively). Five subjects were randomized in a double-blind fashion in each dose cohort: 4 subjects received active Formula C ointment and 1 received matched placebo (0% Formula C; vehicle control). The study ointment (250 mg) was applied once to a 25 centimeter squared area of skin on the forehead of each volunteer.

Series [14] relates to Lymphoma (Non-Hodgkin) LYXFNH U-937. The series can be described thus: CFA, LYXFNH U-937. The following applies: Cell line/CFA. It counts as cell-based, human. How it is done:
as §1

In series [15] the test system is Prostate PRXF MRI-H-1579. The series can be described thus: CFA, PRXF MRI-H-1579. It counts as cell-based, human. The following applies: Cell line/CFA. How it is done: as §1
Series [16] relates to A431 cells. The experiment in a line: Apoptosis: cytochrome C in mitochondrial fraction (WB), A431 cells. Type of series: cell-based, human. Particulars: within 2 hours of treatment, WB semi-quantification. The protocol:
Antibodies used: anti-rabbit HK1 (C-20245) and HK2 (C-28765) from CST (Danvers, MA), anti-rabbit PPIA (ab41684, Abcam), anti-rabbit TIM22 (14927-1-AP, Proteintech Group Inc., Rosemont, IL), anti-rabbit Cytochrome C (PA1118, Boster Biological Technology, Pleasanton, CA). Detection was performed using secondary antibodies: peroxidase-conjugated Affinipure goat anti-rabbit IgG (H+L) or goat anti-mouse IgG (H+L) (111-035-003 and 115-035-003, Jackson ImmunoResearch, West Grove, PA), and development was using the ECL kit WesternBright™ ECL (K-12045-D10, Advansta, Menlo Park, California, USA).
Apoptosis induction was determined by semi-quantification of cytochrome C levels in the mitochondrial fraction analyzed by WB, following 2 hours of treatment with Formula C in A431 cells. Cleaved caspase-3 levels were analyzed following 6 hours of Formula C treatment in A431 cells, using PathScan® Cleaved Caspase-3 Sandwich ELISA kit (CST, Danvers, MA).

The structures appear in SMILES notation. Entries after “also recorded” stand apart in the source; their conditions may differ.

With `CC/C=C\CC1C(=O)CCC1CC(=O)Oc1cccc2cccnc12` (stereo not drawn) [Formula C], the IC50 in [1] was found to be 1920 nM; in series [4], 14 nM; in series [5], 1550 nM; in series [6], 5.2 µM; in series [7] it was 1160 nM; in [8], 1740 nM. For the same compound, the IC50 in series [9] came to 3.88 µM; in series [10], 1470 nM; in series [11] it was 1970 nM; in series [14], 1280 nM; in series [15] it was 1660 nM. Further, in [2], the “systemic exposure of VDA-1102 or its major metabolite” value is “No systemic exposure”. Besides, the HK2 catalytic activity entry in series [3] is “does not affect; also recorded: did not affect the catalytic activity”. Moreover, the skin irritation entry in series [12] is “did not cause any irritation”. Further, the “clinically significant changes at application sites, vital signs, physical examinations, clinical laboratory results, ECGs, Holter monitors” value in series [13] (single topical application) is “No clinically significant changes”. For the same compound, the “severity and course of adverse events” value in series [13] (single topical application) was “mild, short-lived and reversible”. In series [13] (single topical application of 250 mg 5%, 10% or 20% ointment to 25 cm2 forehead), the serious adverse events entry is reported as “No serious adverse events”. The “cytochrome C levels in the mitochondrial fraction” value in [16] is “reduction of cytochrome C levels”.

In general, IC50 refers to the concentration that gives 50% inhibition. The low end stands for higher potency, the high end for lower potency.
